In PubChem BioAssay (NCI):
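Step 1: Grow cells in 96-well plates. Step 2: Expose to compound for 48 hours at 5 concentrations. Step 3: Interpolate endpoints linearly; if unreached, use highest concentration. TGI is the concentration that stops growth completely.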

Tests used:
Experiment in all cases: NCI-60 cell line screen, 48 h
[1] = test system: EKVX NSCLC
[2] = test system: SNB-78 CNS
[3] = test system: MOLT-4 leukemia
[4] = test system: SNB-75 CNS
[5] = test system: KM12 colon
[6] = test system: A498 renal
[7] = test system: HCC-2998 colon
[8] = test system: OVCAR-4 ovarian
[9] = test system: SN12C renal
[10] = test system: NCI-H226 lung
[11] = test system: OVCAR-8 ovarian
[12] = test system: 786-0 renal
[13] = test system: UACC-257 melanoma
[14] = test system: TK-10 renal
[15] = test system: KM20L2 colon
[16] = test system: RXF-631 renal
[17] = test system: MALME-3M melanoma
[18] = test system: NCI-H460 lung
[19] = test system: A549 NSCLC
[20] = test system: NCI-H23 lung
[21] = test system: K-562 leukemia
[22] = test system: HCT-116 colon
[23] = test system: HOP-18 NSCLC
[24] = test system: LOX IMVI melanoma
[25] = test system: COLO 205 colon
[26] = test system: DMS 114 small cell lung
[27] = test system: HL-60(TB) leukemia
[28] = test system: OVCAR-3 ovarian
[29] = test system: M14 melanoma
[30] = test system: DMS 273 small cell lung
[31] = test system: HT29 colon
[32] = test system: SW-620 colon
[33] = test system: ACHN renal
[34] = test system: UO-31 renal
[35] = test system: U251 CNS
[36] = test system: RPMI-8226 leukemia
[37] = test system: SF-539 CNS
[38] = test system: IGROV1 ovarian
[39] = test system: SK-MEL-5 melanoma
[40] = test system: SK-MEL-28 melanoma
[41] = test system: HCT-15 colon
[42] = test system: HOP-62 NSCLC
[43] = test system: CCRF-CEM leukemia
[44] = test system: RXF 393 renal
[45] = test system: SK-MEL-2 melanoma
[46] = test system: SNB-19 CNS
[47] = test system: M19-MEL melanoma
[48] = test system: SK-OV-3 ovarian
[49] = test system: SF-295 CNS
[50] = test system: XF 498 CNS
[51] = test system: UACC-62 melanoma
[52] = test system: SF-268 CNS
[53] = test system: HOP-92 NSCLC
[54] = test system: NCI-H522 lung
[55] = test system: SR leukemia
[56] = test system: DLD-1 colon
[57] = test system: LXFL 529 NSCLC
[58] = test system: OVCAR-5 ovarian
[59] = test system: CAKI-1 renal

Measured: TGI

COc1ccc(CN2CC(C)(C)C2=O)c(OC)c1
> 100 µM: [1] | [2] | [3] | [4] | [5] | [6] | [7] | [8] | [9] | [10] | [11] | [12] | [13] | [14] | [15] | [16] | [17] | [18] | [19] | [20] | [21] | [22] | [23] | [24] | [25] | [26] | [27] | [28] | [29] | [30] | [31] | [32] | [33] | [34] | [35] | [36] | [37] | [38] | [39] | [40] | [41] | [42] | [43] | [44] | [45] | [46] | [47] | [48] | [49] | [50] | [51] | [52] | [53] | [54]

CN(Cc1ccccc1)C(=O)c1ccccc1C(=O)O
> 100 µM: [1] | [3] | [4] | [5] | [7] | [8] | [9] | [10] | [55] | [11] | [56] | [12] | [13] | [14] | [15] | [16] | [17] | [18] | [19] | [20] | [21] | [22] | [24] | [25] | [57] | [26] | [27] | [28] | [29] | [58] | [30] | [31] | [32] | [33] | [34] | [35] | [36] | [37] | [59] | [38] | [41] | [43] | [44] | [45] | [46] | [47] | [48] | [49] | [50] | [52] | [53] | [54]
